Experimental data as given in PubChem BioAssay AID1259407 (Chemical Carcinogenesis Research Information System (CCRIS), 2018).
Activity calls are given as the source filed them. The rule behind the calls is not given here.

System: CCRIS mutagenicity, Ames/micronucleus/aberration tests
Experiment: CCRIS mutagenicity studies
[1] = Test System: AMES SALMONELLA TYPHIMURIUM, Strain/Indicator: TA98, Metabolic Activation: NONE, Method: STANDARD PLATE
[2] = Test System: AMES SALMONELLA TYPHIMURIUM, Strain/Indicator: TA98, Metabolic Activation: NONE, Method: PREINCUBATION
[3] = Test System: AMES SALMONELLA TYPHIMURIUM, Strain/Indicator: TA100, Metabolic Activation: NONE, Method: PREINCUBATION
[4] = Test System: AMES SALMONELLA TYPHIMURIUM, Strain/Indicator: TA1535, Metabolic Activation: NONE, Method: PREINCUBATION
[5] = Test System: AMES SALMONELLA TYPHIMURIUM, Strain/Indicator: TA1537, Metabolic Activation: NONE, Method: PREINCUBATION

Measured: mutagenic call

Clc1ccc(-c2nc3ccccc3o2)cc1
inactive: [1] inactive; negative | Test System: AMES SALMONELLA TYPHIMURIUM, Strain/Indicator: TA98, Metabolic Activation: S-9, Method: STANDARD PLATE inactive; negative

NC(=O)CCCCC(N)=O
inactive: Test System: AMES SALMONELLA TYPHIMURIUM, Strain/Indicator: TA98, Metabolic Activation: HAMSTER, LIVER, S-9, AROCLOR 1254, Method: PREINCUBATION inactive; negative | [2] inactive; negative | Test System: AMES SALMONELLA TYPHIMURIUM, Strain/Indicator: TA98, Metabolic Activation: RAT, LIVER, S-9, AROCLOR 1254, Method: PREINCUBATION inactive; negative | Test System: AMES SALMONELLA TYPHIMURIUM, Strain/Indicator: TA100, Metabolic Activation: HAMSTER, LIVER, S-9, AROCLOR 1254, Method: PREINCUBATION inactive; negative | [3] inactive; negative | Test System: AMES SALMONELLA TYPHIMURIUM, Strain/Indicator: TA100, Metabolic Activation: RAT, LIVER, S-9, AROCLOR 1254, Method: PREINCUBATION inactive; negative | Test System: AMES SALMONELLA TYPHIMURIUM, Strain/Indicator: TA1535, Metabolic Activation: HAMSTER, LIVER, S-9, AROCLOR 1254, Method: PREINCUBATION inactive; negative | [4] inactive; negative | Test System: AMES SALMONELLA TYPHIMURIUM, Strain/Indicator: TA1535, Metabolic Activation: RAT, LIVER, S-9, AROCLOR 1254, Method: PREINCUBATION inactive; negative | Test System: AMES SALMONELLA TYPHIMURIUM, Strain/Indicator: TA1537, Metabolic Activation: HAMSTER, LIVER, S-9, AROCLOR 1254, Method: PREINCUBATION inactive; negative | [5] inactive; negative | Test System: AMES SALMONELLA TYPHIMURIUM, Strain/Indicator: TA1537, Metabolic Activation: RAT, LIVER, S-9, AROCLOR 1254, Method: PREINCUBATION inactive; negative

O=C(Nc1cccc2c(=O)c3c(ccc4c5cc(NC(=O)c6ccccc6)c6c(=O)c7ccccc7c(=O)c6c5[nH]c43)c(=O)c12)c1ccccc1
inactive: Test System: AMES SALMONELLA TYPHIMURIUM, Strain/Indicator: TA98, Metabolic Activation: HAMSTER, LIVER, S-9, AROCLOR 1254 (10%), Method: PREINCUBATION inactive; negative | [2] inactive; negative | Test System: AMES SALMONELLA TYPHIMURIUM, Strain/Indicator: TA98, Metabolic Activation: RAT, LIVER, S-9, AROCLOR 1254 (10%), Method: PREINCUBATION inactive; negative | Test System: AMES SALMONELLA TYPHIMURIUM, Strain/Indicator: TA100, Metabolic Activation: HAMSTER, LIVER, S-9, AROCLOR 1254 (10%), Method: PREINCUBATION inactive; negative | [3] inactive; negative | Test System: AMES SALMONELLA TYPHIMURIUM, Strain/Indicator: TA100, Metabolic Activation: RAT, LIVER, S-9, AROCLOR 1254 (10%), Method: PREINCUBATION inactive; negative | Test System: AMES SALMONELLA TYPHIMURIUM, Strain/Indicator: TA1535, Metabolic Activation: HAMSTER, LIVER, S-9, AROCLOR 1254 (10%), Method: PREINCUBATION inactive; negative | [4] inactive; negative | Test System: AMES SALMONELLA TYPHIMURIUM, Strain/Indicator: TA1535, Metabolic Activation: RAT, LIVER, S-9, AROCLOR 1254 (10%), Method: PREINCUBATION inactive; negative | Test System: AMES SALMONELLA TYPHIMURIUM, Strain/Indicator: TA1537, Metabolic Activation: HAMSTER, LIVER, S-9, AROCLOR 1254 (10%), Method: PREINCUBATION inactive; negative | [5] inactive; negative | Test System: AMES SALMONELLA TYPHIMURIUM, Strain/Indicator: TA1537, Metabolic Activation: RAT, LIVER, S-9, AROCLOR 1254 (10%), Method: PREINCUBATION inactive; negative | Test System: Ames Salmonella typhimurium, Strain/Indicator: TA100, Metabolic Activation: None, Method: Preincubation inactive; negative | Test System: Ames Salmonella typhimurium, Strain/Indicator: TA102, Metabolic Activation: None, Method: Preincubation inactive; negative | Test System: Ames Salmonella typhimurium, Strain/Indicator: TA1535, Metabolic Activation: None, Method: Preincubation inactive; negative
active: Test System: Ames Salmonella typhimurium, Strain/Indicator: TA98, Metabolic Activation: None, Method: Preincubation active; positive

COC(=O)Nc1nc2ccc(/C(=N/O)c3ccc(F)cc3)cc2[nH]1
active: Test System: AMES SALMONELLA TYPHIMURIUM, Strain/Indicator: TA98, Metabolic Activation: RAT, LIVER, S-9, AROCLOR 1254, Method: STANDARD PLATE active; positive
inactive: [1] inactive; negative | Test System: AMES SALMONELLA TYPHIMURIUM, Strain/Indicator: TA100, Metabolic Activation: NONE, Method: STANDARD PLATE inactive; negative | Test System: AMES SALMONELLA TYPHIMURIUM, Strain/Indicator: TA100, Metabolic Activation: RAT, LIVER, S-9, AROCLOR 1254, Method: STANDARD PLATE inactive; negative

Clc1ccc2ccccc2n1
inactive: [2] inactive; negative | Test System: AMES SALMONELLA TYPHIMURIUM, Strain/Indicator: TA98, Metabolic Activation: RAT, LIVER, S-9, Method: PREINCUBATION inactive; negative | [3] inactive; negative | Test System: AMES SALMONELLA TYPHIMURIUM, Strain/Indicator: TA100, Metabolic Activation: RAT, LIVER, S-9, PHENOBARBITAL AND 5,6-BENZOFLAVONE, Method: PREINCUBATION inactive; negative | Test System: AMES SALMONELLA TYPHIMURIUM, Strain/Indicator: TA100, Metabolic Activation: RAT, LIVER, S-9, Method: PREINCUBATION inactive; negative
